Starred links: 1 amine or outer side, 2 acyl side, 3 side chain; linkers in the order of their positions; H or OH if unused. Non-standard residues stand in square brackets, D forms with d. Residues, ends and D or L forms follow the SMILES beside them. Groups on a side chain read outwards from the residue. *: point of attachment. C20 diacid = O=C(O)CCCCCCCCCCCCCCCCCCC(=O)*; C18 diacid = O=C(O)CCCCCCCCCCCCCCCCC(=O)*; γGlu = O=C(O)[C@H](CCC(=O)[*:2])N[*:1]; αMeF = C[C@](N)(Cc1ccccc1)C(=O)O; AEEA = NCCOCCOCC(=O)O; Aib = CC(C)(N)C(=O)O

The values that follow come from US20250353891A1 (MEDIMMUNE LIMITED, priority 2022, published 2025).

Experiment [1] has as its target human glucagon receptor (hGCGR) (Homo sapiens, UniProt P47871). The experiment can be described thus: cAMP production (HTRF) in CHO cells expressing hGCGR. The format is cell-based. Details: expressed in transfected cells. To be noted: Table 7, peptides modified at position 20; cAMP in CHO hGCGR cells; geometric mean; read-out: hGluc-R EC50. In outline:
(§1)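 Cells were resuspended in assay buffer at batch-optimized density, typically 1×10^5 cells/mL for hGLP-1R and 2×10^5 cells/mL for hGCGR. After 30 min incubation at room temperature with compound, cAMP was measured by two-step HTRF. EC50 values came from 4-parameter logistic fits of % Delta F.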

Experiment [2] has as its target human GLP-1 receptor (hGLP-1R) (Homo sapiens, UniProt P43220). The experiment can be described thus: cAMP production (HTRF) in CHO cells expressing hGLP-1R. The class given is cell-based. Details: expressed in transfected cells. As to conditions: for EC50: Table 7, peptides modified at position 20, cAMP in CHO hGLP-1R cells, geometric mean, read-out: hGLP-1R EC50; for % Relative Potency Ratio: Table 7, % GLP-1R activity relative to GLP-1 / % GlucR activity relative to glucagon. In short, it runs like this:
as §1

Sequence of human GLP-1 receptor (hGLP-1R) (P43220 24-463): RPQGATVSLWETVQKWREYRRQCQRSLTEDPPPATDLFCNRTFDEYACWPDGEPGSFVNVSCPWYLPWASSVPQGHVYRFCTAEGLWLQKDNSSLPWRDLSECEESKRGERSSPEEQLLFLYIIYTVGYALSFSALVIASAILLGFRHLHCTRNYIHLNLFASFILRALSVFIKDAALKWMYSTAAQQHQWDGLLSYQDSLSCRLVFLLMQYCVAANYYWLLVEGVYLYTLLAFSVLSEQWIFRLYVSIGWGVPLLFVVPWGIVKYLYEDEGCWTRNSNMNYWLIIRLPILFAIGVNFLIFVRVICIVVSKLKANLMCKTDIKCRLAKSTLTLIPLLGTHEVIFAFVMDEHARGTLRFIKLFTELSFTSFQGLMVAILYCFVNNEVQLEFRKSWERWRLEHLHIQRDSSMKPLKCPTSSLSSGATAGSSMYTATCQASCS
Sequence of human glucagon receptor (hGCGR) (P47871 26-477): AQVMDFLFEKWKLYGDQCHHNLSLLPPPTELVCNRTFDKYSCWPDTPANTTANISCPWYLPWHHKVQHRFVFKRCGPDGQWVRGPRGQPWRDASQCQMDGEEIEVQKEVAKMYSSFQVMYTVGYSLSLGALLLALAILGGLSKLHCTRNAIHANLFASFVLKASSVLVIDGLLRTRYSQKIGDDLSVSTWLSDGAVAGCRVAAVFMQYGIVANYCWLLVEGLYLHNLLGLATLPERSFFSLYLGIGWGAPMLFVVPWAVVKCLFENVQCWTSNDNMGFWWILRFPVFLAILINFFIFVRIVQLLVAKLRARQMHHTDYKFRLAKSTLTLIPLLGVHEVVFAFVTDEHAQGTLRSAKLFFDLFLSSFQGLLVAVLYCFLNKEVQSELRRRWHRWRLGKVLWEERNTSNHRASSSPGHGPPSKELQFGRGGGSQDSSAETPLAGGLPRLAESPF

Take `CC[C@H](C)[C@H](NC(=O)[C@H](Cc1c[nH]c2ccccc12)NC(=O)[C@H](CCC(N)=O)NC(=O)[C@@H](NC(=O)[C@](C)(Cc1ccccc1)NC(=O)[C@H](CC(=O)O)NC(=O)[C@H](CCCCNC(=O)COCCOCCNC(=O)COCCOCCNC(=O)CC[C@H](NC(=O)CCCCCCCCCCCCCCCCC(=O)O)C(=O)O)NC(=O)[C@H](C)NC(=O)[C@H](C)NC(=O)[C@H](CCCNC(=N)N)NC(=O)[C@H](CO)NC(=O)[C@H](CC(=O)O)NC(=O)[C@H](CC(C)C)NC(=O)[C@](C)(Cc1ccccc1)NC(=O)[C@H](CCCCN)NC(=O)[C@H](CO)NC(=O)[C@@H](NC(=O)[C@H](CC(=O)O)NC(=O)[C@H](CO)NC(=O)[C@@H](NC(=O)[C@](C)(Cc1ccccc1)NC(=O)[C@H](CO)NC(=O)CNC(=O)[C@H](Cc1c[nH]cn1)NC(=O)C(C)(C)NC(=O)[C@@H](N)Cc1c[nH]cn1)[C@@H](C)O)C(C)C)C(C)C)C(=O)N[C@@H](C)C(=O)N[C@@H](CC(N)=O)C(=O)N[C@H](C(N)=O)[C@@H](C)O` [Peptide 288] (H-H[Aib]HGS[αMeF]TSDVSK[αMeF]LDSRAAK([AEEA-AEEA-γGlu-C18 diacid])D[αMeF]VQWIANT-NH2): in experiment [1], the EC50 is 0.0269 nM. Also, in experiment [2], the EC50 worked out at 0.0427 nM and the “% Relative Potency Ratio” value was 1.2.

Regarding `CC[C@H](C)[C@H](NC(=O)[C@H](Cc1c[nH]c2ccccc12)NC(=O)[C@H](CCC(N)=O)NC(=O)[C@@H](NC(=O)[C@](C)(Cc1ccccc1)NC(=O)[C@H](CC(=O)O)NC(=O)[C@H](CCCCNC(=O)COCCOCCNC(=O)COCCOCCNC(=O)CC[C@H](NC(=O)CC[C@H](NC(=O)CCCCCCCCCCCCCCCCCCC(=O)O)C(=O)O)C(=O)O)NC(=O)[C@H](C)NC(=O)[C@H](C)NC(=O)[C@H](CCCNC(=N)N)NC(=O)[C@H](CO)NC(=O)[C@H](CC(=O)O)NC(=O)[C@H](CC(C)C)NC(=O)[C@H](Cc1ccc(O)cc1)NC(=O)[C@H](CCCCN)NC(=O)[C@H](CO)NC(=O)[C@@H](NC(=O)[C@H](CC(=O)O)NC(=O)[C@H](CO)NC(=O)[C@@H](NC(=O)[C@H](Cc1ccccc1)NC(=O)[C@H](CO)NC(=O)CNC(=O)[C@H](Cc1c[nH]cn1)NC(=O)C(C)(C)NC(=O)[C@@H](N)Cc1c[nH]cn1)[C@@H](C)O)C(C)C)C(C)C)C(=O)N[C@@H](C)C(=O)N[C@@H](CC(N)=O)C(=O)N[C@H](C(N)=O)[C@@H](C)O` [Peptide 291] (H-H[Aib]HGSFTSDVSKYLDSRAAK([AEEA-AEEA-γGlu-γGlu-C20 diacid])D[αMeF]VQWIANT-NH2), the 50% effective concentration (EC50) in experiment [1] worked out at 0.847 nM. In experiment [2], the EC50 came out at 1.51 nM and the “% Relative Potency Ratio” value turned out to be 1.1.

In the case of `CC[C@H](C)[C@H](NC(=O)[C@H](Cc1c[nH]c2ccccc12)NC(=O)[C@H](CCC(N)=O)NC(=O)[C@@H](NC(=O)[C@H](Cc1ccccc1)NC(=O)[C@H](CC(=O)O)NC(=O)[C@H](CCCCNC(=O)COCCOCCNC(=O)COCCOCCNC(=O)CC[C@H](NC(=O)CCCCCCCCCCCCCCCCC(=O)O)C(=O)O)NC(=O)[C@H](C)NC(=O)[C@H](C)NC(=O)[C@H](CCCNC(=N)N)NC(=O)[C@H](CO)NC(=O)[C@H](CC(=O)O)NC(=O)[C@H](CC(C)C)NC(=O)[C@H](Cc1ccc(O)cc1)NC(=O)[C@H](CCCCN)NC(=O)[C@H](CO)NC(=O)[C@@H](NC(=O)[C@H](CC(=O)O)NC(=O)[C@H](CO)NC(=O)[C@@H](NC(=O)[C@](C)(Cc1ccccc1)NC(=O)[C@H](CO)NC(=O)CNC(=O)[C@H](Cc1c[nH]cn1)NC(=O)C(C)(C)NC(=O)[C@@H](N)Cc1c[nH]cn1)[C@@H](C)O)C(C)C)C(C)C)C(=O)N[C@@H](C)C(=O)N[C@@H](CC(N)=O)C(=O)N[C@H](C(N)=O)[C@@H](C)O` [Peptide 292] (H-H[Aib]HGS[αMeF]TSDVSKYLDSRAAK([AEEA-AEEA-γGlu-C18 diacid])DFVQWIANT-NH2), the EC50 in experiment [1] was 0.0204 nM. Further, in experiment [2], the EC50 stood at 0.0287 nM and the “% Relative Potency Ratio” value is listed as 1.4.
